Tested on: 857933-349-R-J2-PDC complex spheroid viability
Assay: Anticancer human tumor 857933-349-R-J2-PDC patient-derived colon adenocarcinoma cell line growth inhibition [POLQ]
Conditions: for IC50: curve of first compound; for viability, T/C: stronger effect = lower value
Procedure, shortened: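 PDC + HUVEC + MSC complex spheroids; POLQ inhibitors ± partner drugs; top conc. at/near clinical Cmax, else 10 microM (SN-38 1 microM), half-log dilutions; 37 degrees C, 5% CO2.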

[1] = second compound 0.0316 µM, first compound 0.0316 µM
[2] = second compound 0.0316 µM, first compound 0.1 µM
[3] = second compound 0.0316 µM, first compound 0.316 µM
[4] = second compound 0.0316 µM, first compound 1 µM
[5] = second compound 0.0316 µM, first compound 3.16 µM
[6] = second compound 0.0316 µM, first compound 10 µM
[7] = second compound 0.1 µM, first compound 0.0316 µM
[8] = second compound 0.1 µM, first compound 0.1 µM
[9] = second compound 0.1 µM, first compound 0.316 µM
[10] = second compound 0.1 µM, first compound 1 µM
[11] = second compound 0.1 µM, first compound 3.16 µM
[12] = second compound 0.1 µM, first compound 10 µM
[13] = second compound 0.316 µM, first compound 0.0316 µM
[14] = second compound 0.316 µM, first compound 0.1 µM
[15] = second compound 0.316 µM, first compound 0.316 µM
[16] = second compound 0.316 µM, first compound 1 µM
[17] = second compound 0.316 µM, first compound 3.16 µM
[18] = second compound 0.316 µM, first compound 10 µM
[19] = second compound 1 µM, first compound 0.0316 µM
[20] = second compound 1 µM, first compound 0.1 µM
[21] = second compound 1 µM, first compound 0.316 µM
[22] = second compound 1 µM, first compound 1 µM
[23] = second compound 1 µM, first compound 3.16 µM
[24] = second compound 1 µM, first compound 10 µM
[25] = second compound 3.16 µM, first compound 0.0316 µM
[26] = second compound 3.16 µM, first compound 0.1 µM
[27] = second compound 3.16 µM, first compound 0.316 µM
[28] = second compound 3.16 µM, first compound 1 µM
[29] = second compound 3.16 µM, first compound 3.16 µM
[30] = second compound 3.16 µM, first compound 10 µM
[31] = second compound 10 µM, first compound 0.0316 µM
[32] = second compound 10 µM, first compound 0.1 µM
[33] = second compound 10 µM, first compound 0.316 µM
[34] = second compound 10 µM, first compound 1 µM
[35] = second compound 10 µM, first compound 3.16 µM
[36] = second compound 10 µM, first compound 10 µM
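Further: spheroids exposed to compounds for seven days before readout.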

CC1COCCN1c1cc(C2(O)CC3CCC(C2)O3)c2cnn(-c3ccn[nH]3)c2n1 (stereo not drawn) + COC1C(OC(N)=O)C(O)C(Oc2ccc3c(O)c(NC(=O)c4ccc(O)c(CC=C(C)C)c4)c(=O)oc3c2C)OC1(C)C
IC50 (second compound 0.0316 µM): 249 nM
IC50 (second compound 0.1 µM): 279 nM
IC50 (second compound 0.316 µM): 334 nM
IC50 (second compound 1 µM): 285 nM
IC50 (second compound 3.16 µM): 171 nM
IC50 (second compound 10 µM): 339 nM
viability, T/C [1]: 76.3%
viability, T/C [2]: 61.5%
viability, T/C [3]: 48.2%
viability, T/C [4]: 39%
viability, T/C [5]: 40.7%
viability, T/C [6]: 49.7%
viability, T/C [7]: 111%
viability, T/C [8]: 57.7%
viability, T/C [9]: 59.4%
viability, T/C [10]: 37.7%
viability, T/C [11]: 40.2%
viability, T/C [12]: 47%
viability, T/C [13]: 63.3%
viability, T/C [14]: 68.1%
viability, T/C [15]: 50.3%
viability, T/C [16]: 41%
viability, T/C [17]: 43.1%
viability, T/C [18]: 46.7%
viability, T/C [19]: 94.3%
viability, T/C [20]: 58.1%
viability, T/C [21]: 50.4%
viability, T/C [22]: 41.2%
viability, T/C [23]: 49.9%
viability, T/C [24]: 51.4%
viability, T/C [25]: 75.2%
viability, T/C [26]: 54.5%
viability, T/C [27]: 45.5%
viability, T/C [28]: 38.1%
viability, T/C [29]: 43.3%
viability, T/C [30]: 50%
viability, T/C [31]: 71.5%
viability, T/C [32]: 63.6%
viability, T/C [33]: 52.8%
viability, T/C [34]: 36.7%
viability, T/C [35]: 45.6%
viability, T/C [36]: 47.9%

O=C(Nc1ccc(O)c(NS(=O)(=O)c2ccc(F)cc2)c1)c1ccc(-c2ccccc2)cc1 + COC1C(OC(N)=O)C(O)C(Oc2ccc3c(O)c(NC(=O)c4ccc(O)c(CC=C(C)C)c4)c(=O)oc3c2C)OC1(C)C
IC50 (second compound 0.0316 µM): > 10000 nM
IC50 (second compound 0.1 µM): > 10000 nM
IC50 (second compound 0.316 µM): > 10000 nM
IC50 (second compound 1 µM): > 10000 nM
IC50 (second compound 3.16 µM): > 10000 nM
IC50 (second compound 10 µM): > 10000 nM
viability, T/C [1]: 70.1%
viability, T/C [2]: 105%
viability, T/C [3]: 92.3%
viability, T/C [4]: 89.2%
viability, T/C [5]: 80.7%
viability, T/C [6]: 78.6%
viability, T/C [7]: 116%
viability, T/C [8]: 95.9%
viability, T/C [9]: 94.1%
viability, T/C [10]: 92.3%
viability, T/C [11]: 114%
viability, T/C [12]: 101%
viability, T/C [13]: 96%
viability, T/C [14]: 85.5%
viability, T/C [15]: 65.9%
viability, T/C [16]: 65.5%
viability, T/C [17]: 113%
viability, T/C [18]: 84.1%
viability, T/C [19]: 79.5%
viability, T/C [20]: 91.1%
viability, T/C [21]: 81.1%
viability, T/C [22]: 72.9%
viability, T/C [23]: 109%
viability, T/C [24]: 80.7%
viability, T/C [25]: 101%
viability, T/C [26]: 86.9%
viability, T/C [27]: 113%
viability, T/C [28]: 99.2%
viability, T/C [29]: 85.3%
viability, T/C [30]: 61.5%
viability, T/C [31]: 76.2%
viability, T/C [32]: 88.7%
viability, T/C [33]: 99.8%
viability, T/C [34]: 82.8%
viability, T/C [35]: 77.9%
viability, T/C [36]: 68.8%

CC(=O)O[C@H]1C(=O)[C@@]2(C)[C@H]([C@H](OC(=O)c3ccccc3)[C@]3(O)C[C@H](OC(=O)[C@H](O)[C@@H](NC(=O)c4ccccc4)c4ccccc4)C(C)=C1C3(C)C)[C@]1(OC(C)=O)CO[C@@H]1C[C@@H]2O + Cc1cccc(N(C)C(=O)C2C(O)CCN2c2nc(C)cc(C(F)(F)F)c2C#N)c1
IC50 (second compound 0.0316 µM): < 9.49 nM
IC50 (second compound 0.1 µM): < 9.49 nM
IC50 (second compound 0.316 µM): < 9.49 nM
IC50 (second compound 1 µM): < 9.49 nM
IC50 (second compound 3.16 µM): 10.7 nM
IC50 (second compound 10 µM): < 9.49 nM
viability, T/C (second compound 0.0316 µM, first compound 0.00949 µM): 45.4%
viability, T/C (second compound 0.0316 µM, first compound 0.03 µM): 21.2%
viability, T/C (second compound 0.0316 µM, first compound 0.0949 µM): 10.7%
viability, T/C (second compound 0.0316 µM, first compound 0.3 µM): 11.8%
viability, T/C (second compound 0.0316 µM, first compound 0.949 µM): 9.59%
viability, T/C (second compound 0.0316 µM, first compound 3 µM): 14.6%
viability, T/C (second compound 0.1 µM, first compound 0.00949 µM): 40.1%
viability, T/C (second compound 0.1 µM, first compound 0.03 µM): 16.9%
viability, T/C (second compound 0.1 µM, first compound 0.0949 µM): 12.6%
viability, T/C (second compound 0.1 µM, first compound 0.3 µM): 10.6%
viability, T/C (second compound 0.1 µM, first compound 0.949 µM): 14.4%
viability, T/C (second compound 0.1 µM, first compound 3 µM): 13.8%
viability, T/C (second compound 0.316 µM, first compound 0.00949 µM): 40%
viability, T/C (second compound 0.316 µM, first compound 0.03 µM): 19.5%
viability, T/C (second compound 0.316 µM, first compound 0.0949 µM): 10.1%
viability, T/C (second compound 0.316 µM, first compound 0.3 µM): 12%
viability, T/C (second compound 0.316 µM, first compound 0.949 µM): 12.3%
viability, T/C (second compound 0.316 µM, first compound 3 µM): 12.4%
viability, T/C (second compound 1 µM, first compound 0.00949 µM): 47.7%
viability, T/C (second compound 1 µM, first compound 0.03 µM): 20%
viability, T/C (second compound 1 µM, first compound 0.0949 µM): 12.6%
viability, T/C (second compound 1 µM, first compound 0.3 µM): 10.4%
viability, T/C (second compound 1 µM, first compound 0.949 µM): 10.9%
viability, T/C (second compound 1 µM, first compound 3 µM): 13.4%
viability, T/C (second compound 3.16 µM, first compound 0.00949 µM): 54%
viability, T/C (second compound 3.16 µM, first compound 0.03 µM): 15.1%
viability, T/C (second compound 3.16 µM, first compound 0.0949 µM): 10.4%
viability, T/C (second compound 3.16 µM, first compound 0.3 µM): 12.1%
viability, T/C (second compound 3.16 µM, first compound 0.949 µM): 12.1%
viability, T/C (second compound 3.16 µM, first compound 3 µM): 13.5%
viability, T/C (second compound 10 µM, first compound 0.00949 µM): 35.4%
viability, T/C (second compound 10 µM, first compound 0.03 µM): 14.5%
viability, T/C (second compound 10 µM, first compound 0.0949 µM): 13.6%
viability, T/C (second compound 10 µM, first compound 0.3 µM): 11.8%
viability, T/C (second compound 10 µM, first compound 0.949 µM): 13.3%
viability, T/C (second compound 10 µM, first compound 3 µM): 15.4%

COc1cccc2c1C(=O)c1c(O)c3c(c(O)c1C2=O)CC(O)(C(=O)CO)CC3OC1CC(N)C(O)C(C)O1 (stereo not drawn) + Cc1cccc(N(C)C(=O)C2C(O)CCN2c2nc(C)cc(C(F)(F)F)c2C#N)c1
IC50 (second compound 0.0316 µM): 218 nM
IC50 (second compound 0.1 µM): 315 nM
IC50 (second compound 0.316 µM): 304 nM
IC50 (second compound 1 µM): 196 nM
IC50 (second compound 3.16 µM): 199 nM
IC50 (second compound 10 µM): 176 nM
viability, T/C [1]: 86.9%
viability, T/C [2]: 62.2%
viability, T/C [3]: 47.1%
viability, T/C [4]: 17%
viability, T/C [5]: 0.52%
viability, T/C [6]: 0.28%
viability, T/C [7]: 76.9%
viability, T/C [8]: 79.5%
viability, T/C [9]: 48.4%
viability, T/C [10]: 12.9%
viability, T/C [11]: 0.41%
viability, T/C [12]: 0.35%
viability, T/C [13]: 70.4%
viability, T/C [14]: 79.1%
viability, T/C [15]: 46.7%
viability, T/C [16]: 14%
viability, T/C [17]: 0.45%
viability, T/C [18]: 0.46%
viability, T/C [19]: 74.1%
viability, T/C [20]: 60.1%
viability, T/C [21]: 42.3%
viability, T/C [22]: 6.42%
viability, T/C [23]: 0.28%
viability, T/C [24]: 0.34%
viability, T/C [25]: 86.2%
viability, T/C [26]: 66.4%
viability, T/C [27]: 40.2%
viability, T/C [28]: 7.89%
viability, T/C [29]: 0.38%
viability, T/C [30]: 0.47%
viability, T/C [31]: 65.9%
viability, T/C [32]: 64.1%
viability, T/C [33]: 35.7%
viability, T/C [34]: 4.82%
viability, T/C [35]: 0.36%
viability, T/C [36]: 0.46%

— PubChem BioAssay AID1963836 (Molecular Pharmacology Branch, DTP, NCI, 2024)
